This note sets out measurements from paper PMC9551036, “A selective and orally bioavailable VHL-recruiting PROTAC achieves SMARCA2 degradation in vivo” (Nature Communications, 2022).

Data set [1] concerns the target T1, (Homo sapiens, UniProt P51532).
T1 construct: P51532, residues 1448–1569 with additional N-terminal SM residues; GST (TEV site) (N); His6 (TEV site) (N, cleaved yes); made in house; host or cells: SMARCA4^BD: Escherichia coli BL21(DE3)
Put plainly: TR-FRET ternary complex affinity and cooperativity, SMARCA4. The format is binding.

The next data set concerns the target SMARCA2 (Homo sapiens, UniProt P51531). Put plainly: SMARCA2 capillary electrophoresis protein assay in RKO cells. The format is cell-based. Details: endogenous in cells; host or cells: RKO, NCI-H1568, A549, HCT116, LU99, HCC-364, HCT-15, HCC4006, SK-N-AS. The method, then: 130,000–200,000 cells were seeded in 24-well plates and incubated until settled down or overnight. Compounds were dissolved in DMSO and added to cells in indicated concentrations using a digital dispenser following an optional media change. […] For SMARCA2/4 half-life determination, 150,000 or 200,000 cells were seeded in 24-well plates. […] For SMARCA2/4 re-synthesis measurements, 200,000 cells were seeded in 24-well plates. […] Medium was removed, cells were washed with PBS and lysed with 80 µl Lysis Buffer (MSD Tris Lysis Buffer (#R60TX-2) + Halt Inhibitor Cocktail (100x) + Benzonase 0.5 µL/ml). Samples were frozen at −80 °C and thawed at room temperature before use. Samples were transferred to a V-bottom plate and insoluble debris was pelleted by centrifugation for 5 min at maximum speed. The supernatant was transferred to a fresh plate. Master Mix and Ladder were prepared according to manufacturer’s instructions for 12–230 kDa Wes Separation Module, 8 × 25 capillary cartridges, Protein Simple #SM-W004 with Anti-Rabbit Detection Module for Wes, Peggy Sue or Sally Sue, Protein Simple #DM-001. 4.8 µl lysate were mixed with 1.2 µl Master Mix to achieve a protein concentration of ~0.5 µg/µl. […] Wes plates were prepared and run according to manufacturer’s instructions. Proteins were quantified with accompanying Compass Software. SMARCA2/4 protein levels were normalised to GAPDH. […] Where applicable, curves were fitted using a 4-parametric logistic model.

Data set [2] addresses VCB: PROTAC: SMARCA4^BD ternary complex (Homo sapiens, UniProt P40337+P51532). The data set can be described thus: TR-FRET ternary complex affinity and cooperativity, SMARCA4. It is filed as binding. Details: P51532, residues 1448–1569 with additional N-terminal SM residues; GST (TEV site) (N); His6 (TEV site) (N, cleaved yes); made in house; host or cells: SMARCA4^BD: Escherichia coli BL21(DE3).

The target of data set [3] is VCB: PROTAC: SMARCA2^BD ternary complex (Homo sapiens, UniProt P40337+P51531). Put plainly: TR-FRET ternary complex affinity and cooperativity, SMARCA2. The format is binding. Details: P51531-2, residues 1373-1493 with additional N-terminal SM residues; GST (TEV site) (N); His6 (TEV site) (N, cleaved yes); made in house; host or cells: SMARCA2^BD: Escherichia coli BL21(DE3). For orientation: In TR-FRET formats the signal depends on donor and acceptor labels being close together.
Sequence of VCB: PROTAC: SMARCA2^BD ternary complex (P51531 with tags, fused parts or gaps isoform P51531-2): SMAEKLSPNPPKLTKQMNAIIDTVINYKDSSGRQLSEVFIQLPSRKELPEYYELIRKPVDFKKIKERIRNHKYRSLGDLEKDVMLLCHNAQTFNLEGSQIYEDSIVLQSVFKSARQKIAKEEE
Sequence of VCB: PROTAC: SMARCA2^BD ternary complex (P40337 54-213): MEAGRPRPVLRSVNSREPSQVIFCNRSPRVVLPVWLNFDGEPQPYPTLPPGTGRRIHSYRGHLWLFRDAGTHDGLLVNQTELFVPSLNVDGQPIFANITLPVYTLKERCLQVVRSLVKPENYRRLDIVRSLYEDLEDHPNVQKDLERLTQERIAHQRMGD
Sequence of VCB: PROTAC: SMARCA2^BD ternary complex (Q15369 17-112 partner): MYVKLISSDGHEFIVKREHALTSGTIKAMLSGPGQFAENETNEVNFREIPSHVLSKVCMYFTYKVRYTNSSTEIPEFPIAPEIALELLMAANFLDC
Sequence of VCB: PROTAC: SMARCA2^BD ternary complex (Q15370 1-104 partner): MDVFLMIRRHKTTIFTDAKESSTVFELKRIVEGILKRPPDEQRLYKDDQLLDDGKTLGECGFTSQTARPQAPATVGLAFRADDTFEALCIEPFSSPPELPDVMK

Another data set relates to Caco-2 cell monolayer. Put plainly: Bidirectional permeability measurement in Caco-2 cells. The format is in vitro ADME. As to conditions: for Caco-2 Pab: Caco-2, a to b. The method, then:
Bidirectional permeability of test compounds across a Caco-2 cell monolayer was measured as described[43] with a modification of preincubation time[44]: Briefly, Caco-2 cells were seeded onto Transwell inserts (#3379, Corning, Wiesbaden, Germany) at a density of 160000 cells/cm^2 and cultured in DMEM (high glucose) containing 10% fetal bovine serum for 14–21 days. Cells were incubated with culture media containing 1 µM test compound for 24 h. […] Samples were taken at different time points for up to 2 h. Test compound in the samples was quantified with LC-MS/MS. To elucidate the role of drug transporter P-gp in the transcellular transport, permeability measurement was performed in the absence and presence of the selective P-gp inhibitor zosuquidar (5 µM final concentration). Apparent permeability coefficients (Papp,AB, Papp,BA) were calculated as follows:1 Papp,AB=Q_AB/C0×s×t 2 Papp,BA=Q_BA/C0×s×t where Q is the amount of compound recovered in the receiver compartment after the incubation time t, C0 the initial compound concentration given to the donor compartment, and s the surface area of the Transwell inserts. Efflux ratio is calculated as the quotient of Papp,BA (mean of duplicate) to Papp,AB (mean of duplicate). […] In addition, Transepithelial electrical resistance (TEER) values were measured for each plate before the permeability assay. All three parameters (efflux of the reference substrates, Papp values of the low permeable compound, and TEER values) were used to ensure the quality of the assays.
(In general: Caco-2 monolayers are a common model of the intestinal barrier.)

The mark [4] stands for this setting: TR-FRET competition for SMARCA4BD, without VCB, mean ± SD, read-out: TR-FRET SMARCA4BD EC50.
Where [5] appears, read: binary, PROTAC alone, individual replicates, read-out: SMARCA4 BD EC50.
Where [6] appears, read: PROTAC + VCB, individual replicates, read-out: Ternary SMARCA4 BD EC50 (PROTAC + VCB).
Setting [7] is: TR-FRET competition for SMARCA4BD, + VCB, mean ± SD, read-out: TR-FRET Ternary SMARCA4BD EC50 (PROTAC + VCB).
Where [8] appears, read: PROTAC + VCB, individual replicates, read-out: Ternary SMARCA2 BD EC50 (PROTAC + VCB).
Setting [9] is: TR-FRET competition for SMARCA2BD, + VCB, mean ± SD, read-out: TR-FRET Ternary SMARCA2BD EC50 (PROTAC + VCB).

Where “and” joins values, the source holds several entries; their conditions need not be identical. Equal values may be shown once. Read-outs that look alike come from different tables or passages of the source.

A word on the EC50: it is the concentration that produces a half-maximal response.

Sequence of SMARCA2 (P51531 whole entry): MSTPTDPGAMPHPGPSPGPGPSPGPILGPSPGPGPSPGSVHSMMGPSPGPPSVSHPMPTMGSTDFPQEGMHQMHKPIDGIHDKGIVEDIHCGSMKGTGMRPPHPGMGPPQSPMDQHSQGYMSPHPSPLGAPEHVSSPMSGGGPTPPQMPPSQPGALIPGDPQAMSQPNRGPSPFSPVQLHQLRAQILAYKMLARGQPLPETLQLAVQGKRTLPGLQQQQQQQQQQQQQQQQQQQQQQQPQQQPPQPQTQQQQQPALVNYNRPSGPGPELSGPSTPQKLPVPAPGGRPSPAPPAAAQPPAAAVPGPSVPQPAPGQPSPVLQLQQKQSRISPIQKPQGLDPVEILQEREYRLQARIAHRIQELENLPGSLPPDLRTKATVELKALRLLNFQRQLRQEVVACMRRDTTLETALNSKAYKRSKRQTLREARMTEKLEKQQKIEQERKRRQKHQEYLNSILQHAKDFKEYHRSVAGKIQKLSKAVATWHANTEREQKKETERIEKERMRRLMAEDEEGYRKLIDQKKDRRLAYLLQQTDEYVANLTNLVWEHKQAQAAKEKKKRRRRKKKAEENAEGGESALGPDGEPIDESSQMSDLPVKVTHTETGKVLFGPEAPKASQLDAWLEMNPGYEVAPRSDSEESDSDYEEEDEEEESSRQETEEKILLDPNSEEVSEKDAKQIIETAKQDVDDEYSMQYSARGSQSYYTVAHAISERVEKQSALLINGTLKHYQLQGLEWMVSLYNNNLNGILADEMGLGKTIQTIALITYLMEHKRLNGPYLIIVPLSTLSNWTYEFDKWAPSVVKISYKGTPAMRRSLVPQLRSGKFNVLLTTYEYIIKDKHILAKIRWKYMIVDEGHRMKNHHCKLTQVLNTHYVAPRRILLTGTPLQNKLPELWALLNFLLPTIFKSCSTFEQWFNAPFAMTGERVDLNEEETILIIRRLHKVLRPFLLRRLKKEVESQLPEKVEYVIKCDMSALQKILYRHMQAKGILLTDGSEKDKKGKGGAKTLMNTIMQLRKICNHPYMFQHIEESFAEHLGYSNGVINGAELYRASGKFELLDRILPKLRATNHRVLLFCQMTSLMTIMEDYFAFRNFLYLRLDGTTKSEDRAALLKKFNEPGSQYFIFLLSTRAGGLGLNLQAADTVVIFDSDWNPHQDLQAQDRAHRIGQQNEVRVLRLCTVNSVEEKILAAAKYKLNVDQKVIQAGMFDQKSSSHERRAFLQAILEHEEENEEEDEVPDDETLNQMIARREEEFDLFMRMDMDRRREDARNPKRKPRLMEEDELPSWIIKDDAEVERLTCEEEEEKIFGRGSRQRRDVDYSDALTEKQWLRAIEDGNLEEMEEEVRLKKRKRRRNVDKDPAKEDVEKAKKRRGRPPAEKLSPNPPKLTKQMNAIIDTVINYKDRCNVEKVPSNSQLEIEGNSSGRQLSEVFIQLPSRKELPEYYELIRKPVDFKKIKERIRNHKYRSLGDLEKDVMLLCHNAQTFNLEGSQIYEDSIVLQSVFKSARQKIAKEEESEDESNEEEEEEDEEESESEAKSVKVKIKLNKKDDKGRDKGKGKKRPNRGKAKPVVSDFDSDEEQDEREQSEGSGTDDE
Sequence of VCB: PROTAC: SMARCA4^BD ternary complex (P51532 1448-1569): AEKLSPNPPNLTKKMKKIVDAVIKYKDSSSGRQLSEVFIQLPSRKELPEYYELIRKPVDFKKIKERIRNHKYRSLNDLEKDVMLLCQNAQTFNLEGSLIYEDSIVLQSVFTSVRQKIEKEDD
Sequence of VCB: PROTAC: SMARCA4^BD ternary complex (P40337 54-213): as the sequence (P40337 54-213) above
Sequence of VCB: PROTAC: SMARCA4^BD ternary complex (Q15369 17-112 partner): as the sequence (Q15369 17-112 partner) above
Sequence of VCB: PROTAC: SMARCA4^BD ternary complex (Q15370 1-104 partner): as the sequence (Q15370 1-104 partner) above
T1 sequence (P51532 1448-1569): as the sequence (P51532 1448-1569) above

`Cc1ncsc1-c1ccc(C(CCC(C)CCN2CCC(c3ccc4c(c3)n(C3CCCC3)c3nc(=O)c5c(Br)cccc5n43)CC2)NC(=O)C2CC(O)CN2C(=O)C(NC(=O)C2(F)CC2)C(C)(C)C)cc1` (stereo not shown) [ACBI2]: the EC50 in data set [1] (setting [4]) is 314 ± 121 nM; in data set [1] (setting [5]) it was 308 nM and 459 nM and 220 nM; in data set [2] (setting [6]), 80.9 nM and 99.7 nM and 79.5 nM; in data set [2] (setting [7]) it was 86 ± 11 nM; in data set [3] (setting [8]) it was 40 nM and 41.1 nM and 43.2 nM and 39.8 nM and 44 nM; in data set [3] (setting [9]), 42 ± 2 nM. Also, the DC50 was 4 ± 1 nM on SMARCA2 (RKO (4 h), mean ± SD) and 1 nM on SMARCA2 (RKO cells, time not stated at the place (Supplementary Data 2)). At SMARCA2 (RKO cells), the “window of SMARCA2 over SMARCA4 degradation” value is given as over 30 fold. Further, the Dmax came to 71 ± 2% on SMARCA2 (RKO, RKO (4 h), mean ± SD) and 81 ± 7% on SMARCA2 (RKO, RKO (18 h), mean ± SD). Besides, the “Bottom (% protein remaining, four-parameter fit)” value at SMARCA2 (RKO, SM2) came to 21.72%. In addition, the “HillSlope (protein remaining)” value at SMARCA2 (RKO, SM2) was -0.9367. In addition, the “Top (% protein remaining, four-parameter fit)” value at SMARCA2 (RKO, SM2) stood at 158.8%.
`O=c1nc2n(C3CCCC3)c3ccccc3n2c2cccc(Br)c12` [compound 1]: the EC50 in data set [1] (setting [4]) was 857 ± 64 nM; in data set [1] (setting [5]) it was 800 nM and 849 nM and 927 nM; in data set [2] (setting [6]) it was 824 nM and 894 nM and 817 nM; in data set [2] (setting [7]), 844 ± 42 nM; in data set [3] (setting [8]), 381 nM and 365 nM and 425 nM; in data set [3] (setting [9]), 389 ± 31 nM. Besides, in the data set with Caco-2 cell monolayer, the “Caco-2 Efflux ratio” value amounted to 0.8. In addition, the “Caco-2 Pab” value in the data set on Caco-2 cell monolayer amounted to 30.9 ×10⁻⁶ cm/s. In addition, the DC50 on SMARCA2 (RKO (4 h), mean ± SD) was over 25000 nM; on SMARCA2 (RKO (18 h), mean ± SD), over 25000 nM.
With `Nc1cccc2c1c(=O)nc1n(C3CCCC3)c3ccccc3n21` [compound 2], the EC50 in data set [1] (setting [4]) is 2400 nM; in data set [1] (setting [5]) it was 2340 nM and 2880 nM and 2050 nM; in data set [2] (setting [6]), 2270 nM and 2610 nM and 2110 nM; in data set [2] (setting [7]), 2320 nM; in data set [3] (setting [8]), 1910 nM and 2000 nM and 1540 nM and 2490 nM; in data set [3] (setting [9]), 1950 nM. For the same molecule, in the data set on Caco-2 cell monolayer, the “Caco-2 Efflux ratio” value was 0.5. Further, in the data set on Caco-2 cell monolayer, the “Caco-2 Pab” value stood at 37 ×10⁻⁶ cm/s. Moreover, the DC50 is over 25000 nM at SMARCA2 (RKO (4 h), mean ± SD) and over 25000 nM at SMARCA2 (RKO (18 h), mean ± SD).
As for `Cc1ncsc1-c1ccc([C@H](CC[C@H](C)CCN2CCC(c3ccc4c(c3)n(C3CCCC3)c3nc(=O)c5c(Br)cccc5n43)CC2)NC(=O)[C@@H]2C[C@H](O)CN2C(=O)[C@@H](NC(=O)C2(F)CC2)C(C)(C)C)cc1` [compound 12], the EC50 in data set [1] (setting [4]) is 347 ± 41 nM; in data set [1] (setting [5]), > 400 nM and 339 nM and 302 nM; in data set [2] (setting [6]) it was > 400 nM and 385 nM and 314 nM; in data set [2] (setting [7]) it was 367 ± 38 nM; in data set [3] (setting [8]), 148 nM and 161 nM and 256 nM and 158 nM; in data set [3] (setting [9]), 181 ± 44 nM. Besides, the DC50 at SMARCA2 (RKO (4 h), mean ± SD) was over 25000 nM. The molecule further displayed a Dmax on SMARCA2 (RKO, RKO (18 h), mean ± SD) of 82 ± 16%.
On to `CN1CCN(c2nc(=O)c3ccccc3o2)CC1` [compound 14], for which the EC50 in data set [1] (setting [5]), in data set [2] (setting [6]) and in data set [3] (setting [8]) was over 10000 nM throughout. In addition, the DC50 is over 25000 nM on SMARCA2 (RKO (4 h), mean ± SD) and over 25000 nM on SMARCA2 (RKO (18 h), mean ± SD).
Regarding `CN1CCN(c2nc(=O)c3c(Br)cccc3o2)CC1` [compound 15], the EC50 in data set [1] (setting [5]), in data set [2] (setting [6]) and in data set [3] (setting [8]) was over 10000 nM each time. The DC50 on SMARCA2 (RKO (4 h), mean ± SD) is over 25000 nM; on SMARCA2 (RKO (18 h), mean ± SD) it was over 25000 nM.
For the molecule `CN1CCN(c2nc(=O)c3c(I)cccc3o2)CC1` [compound 16], the EC50 in data set [1] (setting [5]), in data set [2] (setting [6]) and in data set [3] (setting [8]) was over 10000 nM each time. Further, the DC50 on SMARCA2 (RKO (4 h), mean ± SD) is over 25000 nM; at SMARCA2 (RKO (18 h), mean ± SD) it was over 25000 nM.
On to `CN1CCN(c2nc(=O)c3c(F)cccc3o2)CC1` [compound 17], for which the EC50 in data set [1] (setting [5]), in data set [2] (setting [6]) and in data set [3] (setting [8]) was over 10000 nM throughout. Moreover, the DC50 at SMARCA2 (RKO (4 h), mean ± SD) is over 25000 nM; at SMARCA2 (RKO (18 h), mean ± SD), over 25000 nM.
In the case of `Cc1ncsc1-c1ccc(CNC(=O)[C@@H]2C[C@H](O)CN2C(=O)[C@@H](NC(=O)C2(F)CC2)C(C)(C)C)c(OCCN2CCC(c3ccc4c(c3)n(C3CCCC3)c3nc(=O)c5c(Br)cccc5n43)CC2)c1` [compound 19], the EC50 was 158 ± 27 nM in data set [1] (setting [4]); 194 nM and 151 nM and 129 nM in data set [1] (setting [5]); 201 nM and 160 nM and 159 nM in data set [2] (setting [6]); 173 ± 19 nM in data set [2] (setting [7]); 69.1 nM and 75.9 nM and 70.4 nM in data set [3] (setting [8]); 72 ± 3 nM in data set [3] (setting [9]). The DC50 is over 25000 nM on SMARCA2 (RKO (4 h), mean ± SD) and over 25000 nM on SMARCA2 (RKO (18 h), mean ± SD).
